The subject of assay [1] is A549 cells. The assay is described as follows: Flow cytometry detection of the efficiency of nucleic acid delivery by lipid. It counts as cell-based, human. Particulars: PGY-sRNA-6-FAM, boiling method. The method, then: Experimental materials: A549 cells (purchased from the Cell Center of the Chinese Academy of Medical Sciences), FAM-sRNA (purchased from Ribobio Biotechnology Co., Ltd.), lipid No. 41, Accuri® C6 instrument (purchased from BD, USA).
Experimental methods: PGY-sRNA-6-FAM was dissolved in 100 μl water, mixed with 4 μl lipid, and prepared by boiling method. Then the mixture was dropped into A549 cells, and after 6 hours of co-incubation, the samples were collected for detection as follows: firstly wash three times with PBS, then digest with trypsin for 3 minutes and remove trypsin, wash with PBS again and then blow down the cells. The detection was performed using Accuri® C6 instrument.
Experimental Method: PGY-sRNA-6-FAM was dissolved in 100 μl water, and mixed with 4 μl lipid, and prepared into lipid-sRNA mixture by boiling method. Then, the mixture was dropped into A549 cells, and after 6 hours of co-incubation, the samples were collected and washed three times with PBS, then digested with trypsin into single cells, washed with re-suspended with PBS and then blown down for Accuri® C6 instrument detection.
Experimental Method: FAM-sRNA was dissolved in 100 μl water, and mixed with 4 μl lipid, prepared by boiling method. Then, the lipid-sRNA mixture was dropped into A549 cells, and after 6 hours of co-incubation, the samples were collected and washed three times with PBS, then digested into single cells with trypsin, re-suspended with PBS and then blown down for Accuri® C6 instrument detection.
Background: In flow cytometry, cells or beads pass a laser one at a time.

Assay [2] concerns A549 cells. The assay is described as follows: Confocal fluorescence microscopy of nucleic acid delivered by lipid in cells. Type of assay: cell-based, human. Conditions: 4 μl lipid, boiling method; 6 hours of co-incubation. The method, then: Experimental materials: A549 cells (purchased from the Cell Center of the Chinese Academy of Medical Sciences), PGY-sRNA-6-Cy3 (purchased from Ribobio Biotechnology Co., Ltd.), lipid No. 41, Zeiss LSM780 (purchased from Zeiss, Germany), Alexa Fluor® 488 phalloidin (purchased from Invitrogen, USA), DAPI (purchased from Invitrogen, USA), paraformaldehyde (purchased from sigma, USA).
Experimental methods: PGY-sRNA-6-FAM was dissolved in 100 μl water, mixed with 4 μl lipid, and prepared by the boiling method. Then the mixture was dropped into A549 cells, and after 6 hours of co-incubation, the samples were washed three times with PBS, fixed with 4% paraformaldehyde, washed three times with PBS, stained with Alexa Fluor® 488 phalloidin for 30 min, washed 3 times with PBS, and stained with DAPI for 5 min, washed with PBS, and then sealed.
Experimental method: PGY-sRNA-6-FAM was dissolved in 100 μl water, and mixed with 4 μl lipid, and prepared by boiling method. Then, the mixture was dropped into A549 cells, and after 6 hours of co-incubation, the samples were washed three times with PBS, fixed with 4% paraformaldehyde, washed three times with PBS, stained with Alexa Fluor® 488 phalloidin for 30 min, washed 3 times with PBS, and stained with DAPI for 5 min, PBS washed, and then sealed.

The subject of the next assay is MRC-5 cell. Nature of the assay: RT-qPCR detection of nucleic acid delivered by lipid into MRC-5 cells. Particulars: RNA 100 nM. It counts as cell-based. As for the experimental part:
3.1 NCI-N87 cell (gastric cancer cell), MRC-5 cell (lung fibroblast), A549 cell (lung cancer cell) were cultured to logarithmic growth phase, and then plated to a six-well plate at cell density of 1×10^6/2 mL medium/well; MRC-5 cell was cultured in Eagle's MEM medium (MEM, Gibco); A549 cell was cultured in Ham's F-12 medium (HyClone); NCI-N87 cell was cultured in RPMI-1640 medium (HyClone); followed by incubation overnight at 37° C., and the follow-up experiments were performed after the cells were attached to the walls.
3.3 After co-incubation with the small RNA for 3 hours, the cells were washed 2-3 times with PBS. The cells were harvested with TRIzol lysis buffer, and the total RNA was extracted. The abundance of small RNA that entered cells was detected by RT-qPCR, and the localization of RNA was detected by fluorescence in situ hybridization; protocols of each detection method were as follows:
3.3.2 RT-qPCR Detection of Small RNA (SYBR Green Dye Method)
The stem-loop primer used in the reverse transcription process was synthesized by Beijing Tsingke Biotechnology Co., Ltd. (U6 RT primer: […] ATG (SEQ ID NO: 21); HJT-sRNA-m7 RT stem-loop primer: […] AA (SEQ ID NO: 22)).
Both the forward and reverse primers of the amplification reaction were designed and synthesized by Beijing Tsingke Biotechnology Co., Ltd. (U6 F Primer: […] (SEQ ID NO: 23), U6 R Primer: […] (SEQ ID NO: 24), HJT-sRNA-m7 F Primer: […] (SEQ ID NO: 25), HJT-sRNA-m7 R Primer: […] (SEQ ID NO: 26)).
3) The relative expression level was calculated by 2-ΔCt method.
3.1.3 After co-incubation with cells for 12-24 hours, the cells were washed twice with PBS. The cells were harvested with TRIzol lysis buffer (purchased from Sigma-Aldrich), and total RNA was extracted.
A general note: Real-time PCR tracks product formation cycle by cycle.

Assay [3] has as its system A549 cells. Nature of the assay: Digital PCR (ddPCR) detection of the efficiency of nucleic acid delivery by lipid. Type of assay: cell-based, human. As for the experimental part: 2.2 Experimental method: the total cellular RNA was collected and extracted by TRIzol lysis buffer according to the above methods, and reverse transcribed to cDNA using High capacity cRNA Reverse Transcription Kit, and the cDNA from different groups was subject to digital PCR reaction. Refering to the QX200 Droplet Reader and QuantaSoft Software manual for the protocols, the results were analyzed using QuantaSoft software.
2.2 Experimental method: total RNA was collected and extracted by TRIzol lysis buffer according to the above method, and reverse transcribed to cDNA using High capacity cRNA Reverse Transcription Kit, and the cDNA from different groups was subjected to digital PCR reaction. Refer to the QX200 Droplet Reader and QuantaSoft Software manual for the protocols; the results were analyzed using QuantaSoft software.
2.2 Experimental method: Total RNA was collected and extracted by TRIzol lysis buffer according to the above method, and reverse transcribed to cDNA using TaqMan™ MicroRNA Reverse Transcription KitHigh, and the cDNA from different groups was subjected to digital PCR reaction. Refer to the QX200 Droplet Reader and QuantaSoft Software manual for the protocols; the results were analyzed using QuantaSoft software.
2.2 Experimental method: Total RNA was collected and extracted by TRIzol lysis buffer according to the above method, and reversed to cDNA using High capacity cRNA Reverse Transcription Kit, and the cDNA from different groups was subjected to digital PCR reaction. Refer to the QX200 Droplet Reader and QuantaSoft Software manual for the protocols; the results were analyzed using QuantaSoft software.

Assay [4] can be described thus: In vivo delivery of single-stranded sRNA by single lipid via gavage (blood, stomach, small intestine, liver). Particulars: 10 μl lipid, heating method. The arrangement: species or system C57 mice. From the text: Tissues sampled: live/stomach/small intestine.
The mark [5] stands for this setting: 4 μl lipid, 6 hours of co-incubation.

Entries after “also recorded” stand apart in the source; their conditions may differ.

Regarding `CCCCCCCCCCCCCCCCCCC[C@@H](O)[C@@H](N)CO` [No. 41, Sphinganine (d22:0)], the “efficiency in delivering PGY-sRNA-6 double-stranded RNA (flow cytometry)” value with A549 cells [1] (setting [5]) is given as 96.7%. In the assay on A549 cells [1] (setting [5]), the “efficiency in delivering PGY-sRNA-6 single-stranded RNA (flow cytometry)” value is 94.1%. Also, in the assay with A549 cells [1] (6 hours), the “efficiency of nucleic acid delivery by flow cytometry, in words” value was “could efficiently deliver single-stranded and double-stranded nucleic acids into A549 cells”. Also, the “entry of PGY-sRNA-6-Cy3 observed under the confocal microscopy” value with A549 cells [2] is on record as “could effectively deliver double-stranded nucleic acid into A549 cells”. Moreover, the figures for the “delivery of double-stranded HJT-sRNA-m7 by single lipid (real-time PCR)” value in the assay with MRC-5 cell (boiling (heating) method) and with MRC-5 cell (reverse evaporation method) were “delivered HJT-sRNA-m7 double-stranded RNA into MRC-5 cells” and “delivered HJT-sRNA-m7 double-stranded RNA into MRC-5 cells; also recorded: significantly higher than that of RNAiMAX”, respectively. Also, in the assay with MRC-5 cell (boiling (heating) method, 12 hours (No. 37: 3 hours)), the “delivery of single-stranded HJT-sRNA-m7 by single lipid (real-time PCR)” value is “delivered HJT-sRNA-m7 single-stranded RNA into A549 and MRC-5 cells”. In addition, the “delivery of HJT-sRNA-m7 dsRNA (ddPCR)” value was “could effectively deliver HJT-sRNA-m7 dsRNA into A549 cells; also recorded: the boiling method had better effects than reverse evaporation method” in the assay on A549 cells [3] (boiling method, 6 hours) and “could effectively deliver HJT-sRNA-m7 dsRNA into A549 cells” with A549 cells [3] (reverse evaporation method, 6 hours (No. 39: 6 hours, 12 hours)). The “entry of single-stranded small RNA into mouse blood (RT-qPCR)” value in assay [4] (1 nmol each sRNA (PGY-sRNA-23/-26/-32), 6 hours or 12 hours after administration) was “could promote the entry of small RNA into the blood, protecting it from degradation in the blood; also recorded: could effectively deliver sRNA single-stranded nucleic acid into the mouse blood via oral administration to protect sRNA from degradation; also recorded: the delivery effect was better than POPC and Lipofectamine RNAiMAX”. Moreover, in assay [4] (1 nmol each sRNA, FIG. 109), the “entry of single-stranded small RNA into mouse stomach (RT-qPCR)” value was “could promote the entry of small RNA into the stomach cells, protecting it from degradation in the stomach; also recorded: could effectively deliver sRNA single-stranded nucleic acid into the mouse stomach via oral administration to protect sRNA from degradation”. For the same molecule, the “entry of single-stranded small RNA into mouse small intestine (RT-qPCR)” value in assay [4] (1 nmol each sRNA, FIG. 110) is recorded as “could promote the entry of small RNA into small intestinal cells, protecting it from degradation in the small intestine; also recorded: could effectively deliver sRNA single-stranded nucleic acid into the mouse small intestine via oral administration to protect sRNA from degradation”. In assay [4] (1 nmol each sRNA, FIG. 111), the “entry of single-stranded small RNA into mouse liver (RT-qPCR)” value was “could promote the entry of small RNA into the liver, protecting it from degradation in the liver; also recorded: could effectively deliver sRNA single-stranded nucleic acid into the mouse liver via oral administration to protect sRNA from degradation”.

Values taken from US20210108198A1, “APPLICATION OF COMPOUND OR TRADITIONAL CHINESE MEDICINE EXTRACT IN PREPARATION OF NUCLEIC ACID DELIVERY AGENT AND RELATED PRODUCTS THEREOF” (INSTITUTE OF BASIC MEDICAL SCIENCES CHINESE ACADEMY OF …, priority 2017, published 2021).
